# T1: AKR1C2 Phe46Tyr (Homo sapiens, UniProt P52895, F46Y)
# T1 sequence (P52895 1-323 F46Y): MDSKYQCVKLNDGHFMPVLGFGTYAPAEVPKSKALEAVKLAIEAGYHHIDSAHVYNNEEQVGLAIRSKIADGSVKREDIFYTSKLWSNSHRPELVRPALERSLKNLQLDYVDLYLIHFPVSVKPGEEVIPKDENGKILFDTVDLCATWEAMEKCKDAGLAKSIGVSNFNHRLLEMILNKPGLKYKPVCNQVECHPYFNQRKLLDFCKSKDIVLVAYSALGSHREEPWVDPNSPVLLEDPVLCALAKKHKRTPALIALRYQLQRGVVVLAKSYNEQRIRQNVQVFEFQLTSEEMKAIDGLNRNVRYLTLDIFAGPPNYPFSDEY
# T2: aromatase (Homo sapiens, UniProt P11511)
# T2 sequence (P11511 1-503): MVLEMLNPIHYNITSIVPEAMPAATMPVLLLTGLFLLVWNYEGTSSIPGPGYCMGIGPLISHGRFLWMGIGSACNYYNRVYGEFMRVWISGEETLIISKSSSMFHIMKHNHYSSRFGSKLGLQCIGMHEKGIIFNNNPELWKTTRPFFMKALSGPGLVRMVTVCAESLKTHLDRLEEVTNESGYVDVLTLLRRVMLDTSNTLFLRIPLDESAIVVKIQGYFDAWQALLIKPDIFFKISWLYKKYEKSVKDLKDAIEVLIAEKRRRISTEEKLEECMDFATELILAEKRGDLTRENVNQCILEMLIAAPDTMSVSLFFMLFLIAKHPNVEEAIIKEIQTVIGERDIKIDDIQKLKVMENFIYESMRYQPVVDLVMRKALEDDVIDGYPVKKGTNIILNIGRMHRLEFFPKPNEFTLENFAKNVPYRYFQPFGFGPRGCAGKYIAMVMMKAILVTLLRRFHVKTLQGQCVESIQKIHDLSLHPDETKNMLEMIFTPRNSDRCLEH
# B1: AKR1C2 Phe46Tyr (Homo sapiens; F46Y) (protein)
# chain: T1 sequence (P52895 1-323 F46Y)
# How the values were obtained:
# AKR1C2 Phe46Tyr [1] = target: T1, AKR1C2 Phe46Tyr; details: relative to wildtype AKR1C2; cited from earlier work
# AKR1C2 Phe46Tyr [2] = target: T1, AKR1C2 Phe46Tyr; details: cited from earlier work
# aromatase [3] = target: T2, aromatase; experiment: Inhibition of aromatase-mediated estrogen formation; format: biochemical; details: unpublished observations
# aromatase [4] = target: T2, aromatase; details: aromatase-mediated estrogen formation; cited from earlier work
# [5] = cited from earlier work
# not read = substrate: C=C1C[C@@H]2[C@H](CC[C@]3(C)C(=O)CC[C@@H]23)[C@@]2(C)C=CC(=O)C=C12; experiment: not read; details: other: AKR1C2 Phe46Tyr (rs2854482); 17β-DHE formation; 37.0 °C
molecule,measurement,setting,value
OC1Cc2cccc3cccc1c23 (stereo not shown) [1-acenaphthenol],decrease in overall AKR1C2 activity by Phe46Tyr substitution,AKR1C2 Phe46Tyr [1],approximately 30%
C[C@]12CCC(=O)C[C@@H]1CC[C@@H]1[C@@H]2CC[C@]2(C)[C@@H](O)CC[C@@H]12 [5α-DHT],decrease in VMAX for reduction relative to wildtype enzyme,AKR1C2 Phe46Tyr [2],40%
"C=C1C[C@H]2[C@@H]3CC[C@@H](O)[C@@]3(C)CC[C@@H]2[C@@]2(C)C=CC(=O)C=C12 [17α-DHE, 17α-dihydroexemestane]",aromatase-inhibiting properties,aromatase [3],no appreciable aromatase-inhibiting properties
"C=C1C[C@H]2[C@@H]3CC[C@H](O)[C@@]3(C)CC[C@@H]2[C@@]2(C)C=CC(=O)C=C12 [17β-DHE, 17β-dihydroexemestane]",aromatase inhibition potency,aromatase [4],potency similar to its parent compound EXE
same,17β-DHE concentration relative to parent drug in plasma,[5]; healthy individuals taking EXE,35–40%
same,variation of amount of 17β-DHE relative to EXE in human plasma,[5]; pool of three participants,five-fold
B1,Km,not read,13.5 ± 2.8 µM
